Among the data in ChEMBL document CHEMBL4219036, “Design and multi-step synthesis of chalcone-polyamine conjugates as potent antiproliferative agents” (Bioorg Med Chem Lett, 2017) are IC50 and logP values, retold here.

SMILES strings stand for the structures.

In one series the test system is HCT-116. Kind of series: Antiproliferative activity against human HCT116 cells after 48 hrs by MTT assay. The conditions noted are these: HCT-116, 48 h. Format: functional, cell-based. In general terms: Tetrazolium assays rely on reduction of a dye to a coloured formazan, in cell work by metabolically active cells.
Series [1] is described as follows: 1-octanol/water partition coefficient, log P of the compound at 300 uM by UV-Vis spectrophotometric analysis. The format is physicochemical.
The subject of another series is DU-145. The experiment in a line: Antiproliferative activity against human DU145 cells after 48 hrs by MTT assay. Format: functional, cell-based. The note with it: DU-145, 48 h.
The next series concerns HT-29. The experiment in a line: Antiproliferative activity against human HT-29 cells after 48 hrs by MTT assay. Format: functional, cell-based. The note with it: HT-29, 48 h.
The test system of a further series is PC-3. The experiment in a line: Antiproliferative activity against human PC3 cells after 48 hrs by MTT assay. The format is functional, cell-based. The note with it: PC-3, 48 h.

One may read the IC50 as the concentration at which inhibition is half-maximal. High values mean lower potency, low ones higher potency. By logP is commonly meant the decadic logarithm of the partition coefficient of the neutral form, usually between octanol and water. A lower logP goes with lower lipophilicity.

Consider `COc1ccc(/C=C/C(=O)c2cc(OC)c(OC)c(OC)c2)cc1`, for which the IC50 with HCT-116 is 10.7 µM; with DU-145, 13.8 µM; with HT-29, 7.4 µM; in the series with PC-3, 7.8 µM. In addition, the logP at 300 µM in series [1] was 3.1.
In the case of `COc1ccc(/C=C/C(=O)c2cc(OC)c(OC)c(OC)c2)cc1OCCCC(=O)NCCCCN(CCCN)CCCCNCCCN`, the IC50 in the series on HCT-116 stood at 29.5 µM; with DU-145 it was 84.9 µM; with HT-29 it was 89.1 µM; in the series with PC-3, 48.1 µM.
The like results for `COc1cc(C(=O)/C=C/c2ccc(OCCCC(=O)NCCCCNCCCN)cc2)cc(OC)c1OC` were, in that order, 20 µM, 54.8 µM, > 100 µM and 79.3 µM.
On to `COc1ccc(/C=C/C(=O)c2cc(OC)c(OC)c(OC)c2)cc1OCCCC(=O)NCCCNCCCCNCCN`, for which the IC50 in the series with HCT-116 is 55.8 µM; with DU-145, 28.5 µM; in the series on HT-29, > 100 µM; in the series with PC-3 it was 31.8 µM. The logP at 300 µM in series [1] was -1.57.
Take `COc1cc(C(=O)/C=C/c2ccc(OCCCC(=O)NCCCNCCCCN)cc2)cc(OC)c1OC`: the IC50 with HCT-116, with DU-145, with HT-29 and in the series on PC-3 was > 100 µM throughout. Further, the logP at 300 µM in series [1] was -1.43.
`COc1cc(C(=O)/C=C/c2ccc(OCCCC(=O)NCCCCN(CCCN)CCCCNCCCN)cc2)cc(OC)c1OC`: the IC50 in the series on HCT-116 is 75.4 µM; in the series on DU-145 it was 92.5 µM; with HT-29 it was 91.7 µM; in the series with PC-3 it was 81.6 µM.
For `COc1cc(C(=O)/C=C/c2ccc(OCCCC(=O)NCCCNCCCCNCCN)cc2)cc(OC)c1OC`, the 50% inhibitory concentration (IC50) with HCT-116 was 33.8 µM; in the series with DU-145, 35.4 µM; in the series on HT-29 it was 98 µM; in the series with PC-3, 34 µM. The logP at 300 µM in series [1] was -1.98.
`COc1ccc(/C=C/C(=O)c2cc(OC)c(OC)c(OC)c2)cc1OCCCC(=O)NCCCNCCCCN`: the IC50 with HCT-116 was > 100 µM; with DU-145, > 100 µM; with HT-29 it was > 100 µM; in the series with PC-3 it was 81 µM.
`COc1ccc(/C=C/C(=O)c2cc(OC)c(OC)c(OC)c2)cc1OCCCC(=O)NCCCCNCCCN`: the IC50 with HCT-116 is 38 µM; in the series with DU-145, 99.3 µM; with HT-29, > 100 µM; in the series with PC-3 it was 51 µM. In series [1], the logP at 300 µM was -1.28.
For the compound `COc1ccc(/C=C/C(=O)c2cc(OC)c(OC)c(OC)c2)cc1OCCCC(=O)NCCCCN(CCCN)CCCCN`, the IC50 came to 73.6 µM in the series on HCT-116, 82.3 µM in the series with DU-145, 74.7 µM with HT-29 and 60.6 µM in the series with PC-3.
The like results for `COc1cc(C(=O)/C=C/c2ccc(OCCCC(=O)NCCCCN(CCCN)CCCCN)cc2)cc(OC)c1OC` were, in that order, 29.2 µM, 86.8 µM, 87.2 µM and 55.4 µM.
Take `COc1ccc(/C=C/C(=O)c2cc(OC)c(OC)c(OC)c2)cc1O`: the IC50 with HCT-116 amounted to 0.85 µM; in the series with DU-145 it was 6.3 µM; in the series with HT-29 it was 23.1 µM; with PC-3 it was 0.09 µM. In series [1], the logP at 300 µM is 2.99.
